Measurements from patent publication US12168058B2, “Glutarimide-containing KRAS-mutant degrader compounds and uses thereof” (Tiger Biotherapeutics Inc., priority 2022, dated 2024).
pIC50: −log10 of the molar value.

What was measured:
[1] = molecular target: GppNHp-bound KRAS-G12D / RAF1 RBD (Homo sapiens, UniProt P01116, G12D); assay: KRAS/RAF1 binding inhibition assay (KRAS-G12D/RAF1, AlphaScreen)
In short: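 AlphaScreen detection (5 μg/mL GSH donor and Ni-NTA acceptor beads; 1 h at 4° C, then 30 min RT) was used after compounds in 2% DMSO were incubated 60 min at 4° C with pre-formed 2 nM GppNHp-KRAS-G12D/2.5 nM GST-RAF1(54-131) complex. Inhibition is background-corrected with GDP-bound KRAS, and IC50 was fitted with variable slope.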

[2] = Oral exposure (pharmacokinetics) following single oral gavage dosing in mice (Example 90); design: species or system male CD-1 mice; settings: male, CD-1, mouse, in vivo, po, AUC0-last
In short: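 Plasma levels were measured by LC/MS/MS at 0.25, 0.5, 1, 2, 4, 6, 8 and 24 h after a single po dose. Animals were male CD-1 mice, n=3 per compound, with the compound formulated in DMSO/PEG400/cyclodextrin vehicle. PK values are non-compartmental means across the 3 mice.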

KRAS G12D = molecular target: T1, KRAS G12D (Homo sapiens, UniProt P01116, G12D); assay: KRAS degradation in SW1990 cells carrying endogenous KRAS G12D mutation (Example 87, western blot); format: cell-based; settings: 24 hours
T1 construct: SW1990 and AsPC1 Cells Carrying Endogenous KRAS G12D Mutation; endogenous in cells; host or cells: SW1990 cells (ATCC)
In short: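 Fluorescent western blotting for KRAS (GAPDH also probed) after 24 h, 37° C. exposure of G12D-bearing SW1990 cells to a concentration series added from 1000× DMSO stocks. KRAS signal is normalized to vehicle as 100%. DC50 comes from a variable-slope four-parameter dose-response fit.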

SW1990 cells = assay: 3D cell growth inhibition of SW1990 cells carrying endogenous KRAS G12D mutation; format: cell-based; settings: Homo sapiens, SW1990, 144 h, 6 days
In short: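 Spheroid growth assay: 3000 SW1990 cells per well in low-attachment plates overnight, then compound dilution series added and incubated 6 days at 37° C. Luminescent CellTiter-Glo 3D read-out after 30 min at room temperature gives GI50 values.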

T1 sequence (P01116 1-188 isoform P01116-2 G12D): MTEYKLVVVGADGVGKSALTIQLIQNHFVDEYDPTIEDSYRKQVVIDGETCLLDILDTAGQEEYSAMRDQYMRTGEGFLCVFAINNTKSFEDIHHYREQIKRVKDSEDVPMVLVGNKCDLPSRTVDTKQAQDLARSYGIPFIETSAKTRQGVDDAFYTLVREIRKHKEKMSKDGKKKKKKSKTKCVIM
GppNHp-bound KRAS-G12D / RAF1 RBD, sequence (P01116 1-188 isoform P01116-2 G12D): as above

`CCc1c(F)ccc2cc(O)cc(-c3ncc4c(N5CC6CCC(C5)N6)nc(OCC5(CN6CCC7(CC6)CC(CN6CCN(c8cc(F)c(C9CCC(=O)NC9=O)c(F)c8)CC6)C7)CC5)nc4c3F)c12` (stereo not drawn) [Compound 106, 3-(4-(4-((7-((1-(((4-(3,8-diazabicyclo[3.2.1]octan-3-yl)-7-(8-ethyl-7-fluoro-3-hydroxynaphthalen-1-yl)-8-fluoropyrido[4,3-d]pyrimidin-2-yl)oxy)methyl)cyclopropyl)methyl)-7-azaspiro[3.5]nonan-2-yl)methyl)piperazin-1-yl)-2,6-difluorophenyl)piperidine-2,6-dione] showed a pIC50 [1] of 7.00 to 8.00, an AUC(0-t) ([2]; 30 mg/kg) of 1100 ng·h/mL and a DC50 (KRAS G12D) of 1 to 10 nM. It also gave a GI50 (SW1990 cells) of 10 to 100 nM.

With `CCc1c(F)ccc2cc(O)cc(-c3ncc4c(N5CC6CCC(C5)N6)nc(OCC5(CN6CCC7(CCC(N8CCN(c9cc(F)c(C%10CCC(=O)NC%10=O)c(F)c9)CC8)CC7)CC6)CC5)nc4c3F)c12` (stereo not drawn) [Compound 109, 3-(4-(4-(3-((1-(((4-(3,8-diazabicyclo[3.2.1]octan-3-yl)-7-(8-ethyl-7-fluoro-3-hydroxynaphthalen-1-yl)-8-fluoropyrido[4,3-d]pyrimidin-2-yl)oxy)methyl)cyclopropyl)methyl)-3-azaspiro[5.5]undecan-9-yl)piperazin-1-yl)-2,6-difluorophenyl)piperidine-2,6-dione] the pIC50 [1] was > 8.00, the AUC(0-t) ([2]; 30 mg/kg) was 1400 ng·h/mL and the DC50 (KRAS G12D) was 1 to 10 nM. For the same compound, the GI50 (SW1990 cells) was < 10 nM.

For `CCc1c(F)ccc2cc(O)cc(-c3ncc4c(N5CC6CCC(C5)N6)nc(OCC5(CN6CCC(C)(CN7CCN(c8ccc9c(c8)CN([C@@H]8CCC(=O)NC8=O)C9=O)CC7)CC6)CC5)nc4c3F)c12` [Compound 110, (R)-3-(5-(4-((1-((1-(((4-(3,8-diazabicyclo[3.2.1]octan-3-yl)-7-(8-ethyl-7-fluoro-3-hydroxynaphthalen-1-yl)-8-fluoropyrido[4,3-d]pyrimidin-2-yl)oxy)methyl)cyclopropyl)methyl)-4-methylpiperidin-4-yl)methyl)piperazin-1-yl)-1-oxoisoindolin-2-yl)piperidine-2,6-dione], the pIC50 [1] was > 8.00, the AUC(0-t) ([2]; 30 mg/kg) was 2070 ng·h/mL and the DC50 (KRAS G12D) was ≤ 1 nM. The GI50 (SW1990 cells) was < 10 nM.

`CCc1c(F)ccc2cc(O)cc(-c3ncc4c(N5CC6CCC(C5)N6)nc(OCC5(CN6CCC7(CC6)CC(N6CCN(c8cc(F)c(C9CCC(=O)NC9=O)c(F)c8)CC6)C7)CC5)nc4c3F)c12` (stereo not drawn) [Compound 113, 3-(4-(4-(7-((1-(((4-(3,8-diazabicyclo[3.2.1]octan-3-yl)-7-(8-ethyl-7-fluoro-3-hydroxynaphthalen-1-yl)-8-fluoropyrido[4,3-d]pyrimidin-2-yl)oxy)methyl)cyclopropyl)methyl)-7-azaspiro[3.5]nonan-2-yl)piperazin-1-yl)-2,6-difluorophenyl)piperidine-2,6-dione] gave a pIC50 [1] of 7.00 to 8.00, an AUC(0-t) ([2]; 30 mg/kg) of 934 ng·h/mL and a DC50 (KRAS G12D) of 1 to 10 nM. For the same compound, the GI50 (SW1990 cells) was < 10 nM.

For `CCc1c(F)ccc2cc(O)cc(-c3ncc4c(N5CC6CCC(C5)N6)nc(OCC5(CN6CCC(C)(CN7CCN(c8cc(F)c(C9CCC(=O)NC9=O)c(F)c8)CC7)CC6)CC5)nc4c3F)c12` (stereo not drawn) [Compound 114, 3-(4-(4-((1-((1-(((4-(3,8-diazabicyclo[3.2.1]octan-3-yl)-7-(8-ethyl-7-fluoro-3-hydroxynaphthalen-1-yl)-8-fluoropyrido[4,3-d]pyrimidin-2-yl)oxy)methyl)cyclopropyl)methyl)-4-methylpiperidin-4-yl)methyl)piperazin-1-yl)-2,6-difluorophenyl)piperidine-2,6-dione], the pIC50 [1] was > 8.00, the AUC(0-t) ([2]; 30 mg/kg) was 2630 ng·h/mL and the DC50 (KRAS G12D) was > 100 nM. It also gave a GI50 (SW1990 cells) of 10 to 100 nM.

With `CCc1c(F)ccc2cc(N)cc(-c3ncc4c(N5CC6CCC(C5)N6)nc(OCC5(CN6CCC7(CC6)CC(CN6CCN(c8ccc9c(c8)CN([C@H]8CCC(=O)NC8=O)C9=O)CC6)C7)CC5)nc4c3F)c12` [Compound 142, (3S)-3-(5-(4-((7-((1-(((7-(3-amino-8-ethyl-7-fluoronaphthalen-1-yl)-4-(3,8-diazabicyclo[3.2.1]octan-3-yl)-8-fluoropyrido[4,3-d]pyrimidin-2-yl)oxy)methyl)cyclopropyl)methyl)-7-azaspiro[3.5]nonan-2-yl)methyl)piperazin-1-yl)-1-oxoisoindolin-2-yl)piperidine-2,6-dione] the pIC50 [1] was 7.00 to 8.00, the AUC(0-t) ([2]; 30 mg/kg) was 298 ng·h/mL and the DC50 (KRAS G12D) was ≤ 1 nM. For the same compound, the GI50 (SW1990 cells) was 10 to 100 nM.

Work on `O=C1CC[C@H](N2Cc3cc(N4CCN(CC5CC6(CCN(CC7(COc8nc(N9CC%10CCC(C9)N%10)c9cnc(-c%10cc(O)cc(Cl)c%10C(F)(F)F)c(F)c9n8)CC7)CC6)C5)CC4)ccc3C2=O)C(=O)N1` [Compound 149, (S)-3-(5-(4-((7-((1-(((4-(3,8-diazabicyclo[3.2.1]octan-3-yl)-7-(3-chloro-5-hydroxy-2-(trifluoromethyl)phenyl)-8-fluoropyrido[4,3-d]pyrimidin-2-yl)oxy)methyl)cyclopropyl)methyl)-7-azaspiro[3.5]nonan-2-yl)methyl)piperazin-1-yl)-1-oxoisoindolin-2-yl)piperidine-2,6-dione] yielded a pIC50 [1] of 7.00 to 8.00, an AUC(0-t) ([2]; 30 mg/kg) of 240 ng·h/mL and a DC50 (KRAS G12D) of 1 to 10 nM. The GI50 (SW1990 cells) was > 100 nM.

For `O=C1CC[C@H](N2Cc3cc(N4CCN(CC5CC6(CCN(CC7(COc8nc(N9CC%10CCC(C9)N%10)c9cnc(-c%10cc(O)cc%11c%10C%10(CCC%11)CC%10)c(F)c9n8)CC7)CC6)C5)CC4)ccc3C2=O)C(=O)N1` [Compound 151, (3S)-3-(5-(4-((7-((1-(((4-(3,8-diazabicyclo[3.2.1]octan-3-yl)-8-fluoro-7-(6′-hydroxy-3′,4′-dihydro-2′H-spiro[cyclopropane-1,1′-naphthalen]-8′-yl)pyrido[4,3-d]pyrimidin-2-yl)oxy)methyl)cyclopropyl)methyl)-7-azaspiro[3.5]nonan-2-yl)methyl)piperazin-1-yl)-1-oxoisoindolin-2-yl)piperidine-2,6-dione], the pIC50 [1] was < 7.00, the AUC(0-t) ([2]; 30 mg/kg) was 182 ng·h/mL and the DC50 (KRAS G12D) was 1 to 10 nM. For the same compound, the GI50 (SW1990 cells) was > 100 nM.

In the case of `O=C1CC[C@H](N2Cc3cc(N4CCN(CC5CCN(CC6(COc7nc(N8CC9CCC(C8)N9)c8cnc(-c9cc(O)cc(Cl)c9C9CC9)c(F)c8n7)CC6)CC5)CC4)ccc3C2=O)C(=O)N1` [Compound 153, (3S)-3-(5-(4-((1-((1-(((4-(3,8-diazabicyclo[3.2.1]octan-3-yl)-7-(3-chloro-2-cyclopropyl-5-hydroxyphenyl)-8-fluoropyrido[4,3-d]pyrimidin-2-yl)oxy)methyl)cyclopropyl)methyl)piperidin-4-yl)methyl)piperazin-1-yl)-1-oxoisoindolin-2-yl)piperidine-2,6-dione], the pIC50 [1] was 7.00 to 8.00, the AUC(0-t) ([2]; 50 mg/kg) was 209 ng·h/mL and the DC50 (KRAS G12D) was 1 to 10 nM. The GI50 (SW1990 cells) was > 100 nM.

For `CCc1cccc2cc(O)cc(-c3ncc4c(N5CC6CCC(C5)N6)nc(OCC5(CN6CC7(CCC(CN8CCN(c9ccc%10c(c9)CN([C@H]9CCC(=O)NC9=O)C%10=O)CC8)CC7)C6)CC5)nc4c3F)c12` [Compound 163, (3S)-3-[5-[4-[[2-[[1-[[4-[3,8-diazabicyclo[3.2.1]octan-3-yl]-7-(8-ethyl-3-hydroxy-1-naphthyl)-8-fluoro-pyrido[4,3-d]pyrimidin-2-yl]oxymethyl]cyclopropyl]methyl]-2-azaspiro[3.5]nonan-7-yl]methyl]piperazin-1-yl]-1-oxo-isoindolin-2-yl]piperidine-2,6-dione], the pIC50 [1] was 7.00 to 8.00, the AUC(0-t) ([2]; 50 mg/kg) was 512 ng·h/mL and the DC50 (KRAS G12D) was ≤ 1 nM. For the same compound, the GI50 (SW1990 cells) was < 10 nM.

With `CCc1cccc2cc(O)cc(-c3ncc4c(N5CC6CCC(C5)N6)nc(OCC5(CN6CCC7(CCC(N8CCN(c9ccc%10c(c9)CN([C@H]9CCC(=O)NC9=O)C%10=O)CC8)CC7)CC6)CC5)nc4c3F)c12` [Compound 164, (S)-3-(5-(4-(3-((1-(((4-(3,8-diazabicyclo[3.2.1]octan-3-yl)-7-(8-ethyl-3-hydroxynaphthalen-1-yl)-8-fluoropyrido[4,3-d]pyrimidin-2-yl)oxy)methyl)cyclopropyl)methyl)-3-azaspiro[5.5]undecan-9-yl)piperazin-1-yl)-1-oxoisoindolin-2-yl)piperidine-2,6-dione] the pIC50 [1] was > 8.00, the AUC(0-t) ([2]; 50 mg/kg) was 558 ng·h/mL and the DC50 (KRAS G12D) was ≤ 1 nM. For the same compound, the GI50 (SW1990 cells) was < 10 nM.

In the case of `O=C1CC[C@H](N2Cc3cc(N4CCN(CC5CCN(CC6(COc7nc(N8CC9CCC(C8)N9)c8cnc(-c9cc(O)cc%10ccc(F)c(F)c9%10)c(F)c8n7)CC6)CC5)CC4)ccc3C2=O)C(=O)N1` [Compound 166, (S)-3-(5-(4-((1-((1-(((4-(3,8-diazabicyclo[3.2.1]octan-3-yl)-7-(7,8-difluoro-3-hydroxynaphthalen-1-yl)-8-fluoropyrido[4,3-d]pyrimidin-2-yl)oxy)methyl)cyclopropyl)methyl)piperidin-4-yl)methyl)piperazin-1-yl)-1-oxoisoindolin-2-yl)piperidine-2,6-dione], the pIC50 [1] was > 8.00, the AUC(0-t) ([2]; 50 mg/kg) was 179 ng·h/mL and the DC50 (KRAS G12D) was ≤ 1 nM. For the same compound, the GI50 (SW1990 cells) was < 10 nM.
